This is an account of results in patent US7338932B2, “Methods of modulating functions of polypeptide GalNAc-transferases and of screening test substances to find agents herefor, pharmaceutical compositions comprising such agents and the use of such agents for preparing medicaments” (Glycozym APS, priority 2000, dated 2008).

pIC50: −log10 of the molar value. Bounds are passed on as bounds.

For the first test, the target named is T1, secreted soluble GalNAc-T4 (sT4) (Homo sapiens, UniProt Q8N4A0).
T1 construct: using the GalNAc-T4-sol construct that encodes residues 32-578 inserted into pT7T3U19; 6xHis (N); thrombin cleavage site (N); T7 tag (N); made in house; host or cells: High Five insect cells (baculovirus)
Nature of the test: Direct binding ELISA to GalNAc-MUC1 glycopeptide, competitive inhibition, sT4. The conditions noted are these: read-out: Concentration required for 50% inhibition (IC50), sT4; binding to GalNAc-MUC1 glycopeptide. The procedure: (§1) Protein biotinylation was made as previously reported^62. The pH of 1 ml purified protein (0.3 mg/ml) in PBS was adjusted to pH 9 with 1 M NaOH and 40 μl N-hydroxy-succinimidobiotin (Sigma) dissolved in DMF (10 mg/ml) was added. The solution was mixed end-over-end for 2 hours at room temperature, and dialyzed three times against PBS and an equal volume of glycerol was added. The biotinylated proteins were stored at −20° C. in 50% glycerol until use.
(§2) Direct binding ELISA assay was developed as follows: Polystyrene microtiter plates (Maxisorb, Nunc, Denmark) were coated with peptides or enzymatically glycosylated glycopeptides in PBS overnight at 4° C. Plates were washed and blocked with 0.1% Tween20 and 0.2% BSA in PBS for 1 h at room temperature, followed by incubation with biotinylated proteins in PBS with 0.05% Tween20 for 2 h at room temperature. After four washes with PBS, plates were incubated with 1:2,000 dilution streptavidin-HRP (Sigma) in PBS for 30 min at room temperature and washed four times with PBS. Development was performed with 0.5 mg/ml o-phenylenediamine and 0.02% H2O2 at room temperature for 15 min, and reaction stopped by adding 100 μl/well of 0.5 N H2SO4. Competitive inhibition assays were done at end-point titers of GalNAc-transferase proteins with one hour preincubations with inhibitor.
(§3) In binding studies using lectins without biotinylation antibodies to the HIS-tag and the T7-tag, or in some experiments antibodies raised to GalNAc-T2 and -T4 enzymes were used to detect binding.
On the technique in general: ELISA stands for enzyme-linked immunosorbent assay.
`CO[C@H]1O[C@H](CO)[C@H](O)[C@H](O)[C@H]1O` [MeαGal]: the pIC50 is 1.30.

Turning to “uridine diphospho-N-acetylgalactosamine [UDPαGalNAc]”, the pIC50 was 1.52.

With `O=c1ccn([C@@H]2O[C@H](COP(=O)(O)OP(=O)(O)O)[C@@H](O)[C@H]2O)c(=O)[nH]1` [UDP], the pIC50 is under 1.00.

Another test deals with T2, GalNAc-T2 lectin domain (T2ld) (Homo sapiens, UniProt Q10471).
T2 construct: made in house; host or cells: High Five insect cells (baculovirus, pAcGP67-A)
T2 sequence (Q10471 408-571): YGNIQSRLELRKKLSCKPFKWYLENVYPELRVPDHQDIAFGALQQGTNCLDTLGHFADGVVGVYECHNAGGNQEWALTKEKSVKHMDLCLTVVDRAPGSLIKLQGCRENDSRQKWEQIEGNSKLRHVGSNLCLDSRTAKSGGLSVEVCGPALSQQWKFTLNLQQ
Nature of the test: Direct binding ELISA to GalNAc-MUC1 glycopeptide, competitive inhibition, T2ld. The conditions noted are these: read-out: Concentration required for 50% inhibition (IC50), T2ld. The method, then:
as §1, §2, §3
For `CO[C@H]1O[C@H](CO)[C@H](O)[C@H](O)[C@H]1O` [MeαGal], the pIC50 is under 1.00.

With `CC(=O)N[C@H]1[C@@H](Oc2ccccc2)O[C@H](CO)[C@H](O)[C@@H]1O` [PhlαGalNAc], the pIC50 is 1.82.

In the case of “uridine diphospho-N-acetylgalactosamine [UDPαGalNAc]”, the pIC50 is under 1.00.

Regarding `O=c1ccn([C@@H]2O[C@H](COP(=O)(O)OP(=O)(O)O)[C@@H](O)[C@H]2O)c(=O)[nH]1` [UDP], the pIC50 was under 1.00.

A further test addresses T3, GalNAc-T4 (Homo sapiens, UniProt Q8N4A0).
T3 construct: using the GalNAc-T4-sol construct that encodes residues 32-578 inserted into pT7T3U19; made in house; host or cells: High Five insect cells (baculovirus, pAcGP67)
Nature of the test: Inhibition of glycosylation dependent (GalNAc-glycopeptide) activity of GalNAc-T4, MALDI-TOF time-course. The test is classed as biochemical. The conditions noted are these: […] free sugar. The method, then:
MALDI-TOF time-course in terminal reactions were performed in reactions of 25 μl containing 2.5 nmol acceptor (glyco)peptide, 40 nmol UDP-GalNAc, and 0.4 μg GalNAc-T4. Sampling of reactions (1 μl) were purified by nano-scale reversed-phase chromatography (Poros R3, PerSeptive Biosystem) and applied directly to the probe with matrix (41). The amount of GalNAc-transferase added was adjusted so that the reaction with the appropriate peptide was near completion in six hours. Reactions were incubated at 37° C. in a shaker bath. At times 0, 2 hours, and 16 hours a 1 μl aliquot was taken and purified. Mass spectra were acquired on either Voyager-DE mass spectrometer equipped with delayed extraction (Perseptive Biosystem Inc.). The matrix used was 2,5-dihydroxybenzoic acid (10 mg/ml, Hewlett-Packard) dissolved in a 2:1 mixture of 0.1% trifluoroacetic acid in 30% aqueous acetonitrile (Rathburn Ltd.).
Quantification of purified proteins was done by Coomassie stained SDS-PAGE and titration of immunoreactivity with the monoclonal antibody, UH6(4G2) (8). […] Wild-type GalNAc-T4 and mutant GalNAc-T4, GalNAc-T4^459H, were analysed with unglycosylated peptides (represented by PSGL-1) or GalNAc glycosylated glycopeptides (represented by GalNAc3TAP25V21) in reactions of 25 μl containing 2.5 nmol acceptor (glyco)peptide, 40 nmol UDP-GalNAc, and 0.4 μg GalNAc-T4. Time-course assays were motioned by MALDI-TOF. Sampling of reactions (1 μl) were purified by nano-scale reversed-phase chromatography (Poros R3, PerSeptive Biosystem) and applied directly to the probe with matrix. Evaluation of inhibition of the glycopeptide specificity of wild-type GalNAc-T4 with free sugars was performed to establish if the lectin domain recognized carbohydrate. […] Further, analysis was performed with 10 mM α-D-GalNAc-1-benzyl, αGlcNAc-benzyl, and fully occupied GalNAc-glycopeptide, GalNAc6TAP25, at 5 mM.
In the case of `OC[C@H]1OC(O)[C@H](O)[C@@H](O)[C@H]1O` (some centres unmarked) [Gal], the “Inhibition of glycosylation dependent specificity of GalNAc-T4” value was “failed to show significant inhibition”.

For `C[C@@H]1OC(O)[C@@H](O)[C@H](O)[C@@H]1O` (some centres unmarked) [Fuc], the “Inhibition of glycosylation dependent specificity of GalNAc-T4” value is “failed to show significant inhibition”.

Another test concerns the target Helix Pomatia lectin (HPA) (Helix pomatia, UniProt Q2F1K8). Nature of the test: Direct binding ELISA, competitive inhibition, Helix Pomatia lectin control. Particulars: read-out: Concentration required for 50% inhibition (IC50), HPA; control plant lectin.
Description: Glycopeptides were purified by C-18 reverse phase HPLC. Peptides were custom synthesized by Neosystems (Strasbourg). Biotinylated Helix Pomatia lectin (HPA) was from KemEnTec (Denmark). Anti-MUC1 HMFG2 monoclonal antibody was a generous gift from Joyce Taylor-Papadimitriou. Anti-MUC1 SE5 monoclonal antibody was developed by immunizing Balb/c mice with 60-mer MUC1 tandem repeat peptide glycosylated with 5 moles GalNAc per repeat. Monoclonal antibodies to the lectin domains of human GalNAc-T2 and -T4 were developed as previously described^8, 63.
as §2
Inhibition experiments were used to further define the binding specificity of GalNAc-T2 and -T4 secreted soluble enzymes as well as lectin domains compared to Helix Pomatia lectin (Table VII).
As for `CO[C@H]1O[C@H](CO)[C@H](O)[C@H](O)[C@H]1O` [MeαGal], the pIC50 was under 1.00.

In the case of `CC(=O)N[C@H]1[C@@H](Oc2ccccc2)O[C@H](CO)[C@H](O)[C@@H]1O` [PhlαGalNAc], the pIC50 was 3.00.

As for `O=c1ccn([C@@H]2O[C@H](COP(=O)(O)OP(=O)(O)O)[C@@H](O)[C@H]2O)c(=O)[nH]1` [UDP], the pIC50 was under 1.00.

Another test deals with T4, GalNAc-T4 lectin domain (T4ld) (Homo sapiens, UniProt Q8N4A0).
T4 construct: made in house; host or cells: High Five insect cells (baculovirus, pAcGP67-A)
Nature of the test: Direct binding ELISA to GalNAc-MUC1 glycopeptide, competitive inhibition, T4ld. The conditions noted are these: read-out: Concentration required for 50% inhibition (IC50), T4ld. The procedure: as §1, §2, §3
`CO[C@H]1O[C@H](CO)[C@H](O)[C@H](O)[C@H]1O` [MeαGal]: the pIC50 was under 1.00.

Regarding `O=c1ccn([C@@H]2O[C@H](COP(=O)(O)OP(=O)(O)O)[C@@H](O)[C@H]2O)c(=O)[nH]1` [UDP], the pIC50 is under 1.00.

The next test addresses T5, secreted soluble GalNAc-T2 (sT2) (Homo sapiens, UniProt Q10471).
T5 construct: HIS-tagged secreted human GalNAc-T2 and -T4 were prepared from pAC-GP67-T2-sol and pAC-GP67-T4-sol cDNA; 6xHis (N); thrombin cleavage site (N); T7 tag (N); made in house; host or cells: High Five insect cells (baculovirus)
Nature of the test: Direct binding ELISA to GalNAc-MUC1 glycopeptide, competitive inhibition, sT2. The conditions noted are these: read-out: Concentration required for 50% inhibition (IC50), sT2. The method, then:
as §1, §2, §3
`CO[C@H]1O[C@H](CO)[C@H](O)[C@H](O)[C@H]1O` [MeαGal]: the pIC50 was under 1.00.

Turning to “uridine diphospho-N-acetylgalactosamine [UDPαGalNAc]”, the pIC50 was 1.19.

Take `O=c1ccn([C@@H]2O[C@H](COP(=O)(O)OP(=O)(O)O)[C@@H](O)[C@H]2O)c(=O)[nH]1` [UDP]: the pIC50 was under 1.00.
